Measurements as given in patent US20250282799A1, “SUBSTITUTED PYRIDO[4,3-d]PYRIMIDINES AS KRAS MODULATORS” (Alterome Therapeutics, Inc., priority 2023, published 2025).

Test system: KRAS G12V dependent lung adenocarcinoma cell line, NCI-H441
Experiment: Cellular pERK (Thr202/Tyr204) FRET/HTRF assay
Assay type: cell-based
Conditions: Homo sapiens, NCI-H441, pERK HTRF, NCI-H441 cells (KRAS G12V)
Summary of the method: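 NCI-H441, overnight plating → cpd 1 hr, 37 °C/5% CO2; DMSO neg ctrl. Lyse (phosphatase inhibitors), add donor/acceptor Abs, RT incubation, HTRF read. IC50 by curve fit.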

IC50 [nM] | Compound
< 50 | C#Cc1c(F)ccc2cc(O)cc(-c3ncc4c(N5CCCCC6C5C6(F)F)nc(OC[C@@]56CCCN5C[C@H](F)C6)nc4c3F)c12 (stereo partly drawn) [Example 6, 4-(4-(8,8-Difluoro-2-azabicyclo[5.1.0]octan-2-yl)-8-fluoro-2-(((2R,7aS)-2-fluorotetrahydro-1H-pyrrolizin-7a(5H)-yl)methoxy)pyrido[4,3-d]pyrimidin-7-yl)-5-ethynyl-6-fluoronaphthalen-2-ol]
500 to 10000 | [2H]C([2H])(Oc1nc(N2CCCC[C@@H]3C[C@@H]32)c2cnc(-c3cc(N)cc4cc(F)c(F)c(C#C)c34)c(F)c2n1)[C@@]12CCCN1C[C@H](F)C2 [Example 7, 4-(4-((1S,7R)-2-Azabicyclo[5.1.0]octan-2-yl)-8-fluoro-2-(((2R,7aS)-2-fluorotetrahydro-1H-pyrrolizin-7a(5H)-yl)methoxy-d2)pyrido[4,3-d]pyrimidin-7-yl)-5-ethynyl-6,7-difluoronaphthalen-2-amine]
50 to 500 | [2H]C([2H])(Oc1nc(N2CCC3CC3CC2)c2cnc(-c3cc(N)cc4cc(F)c(F)c(C#C)c34)c(F)c2n1)[C@@]12CCCN1C[C@H](F)C2 (stereo partly drawn) [Example 9, 4-(4-(4-Azabicyclo[5.1.0]octan-4-yl)-8-fluoro-2-(((2R,7aS)-2-fluorotetrahydro-1H-pyrrolizin-7a(5H)-yl)methoxy-d2)pyrido[4,3-d]pyrimidin-7-yl)-5-ethynyl-6,7-difluoronaphthalen-2-amine]
< 50 | [2H]C([2H])(Oc1nc(N2CCCO[C@H]3C[C@H]32)c2cnc(-c3cc(O)cc4ccc(F)c(C#C)c34)c(F)c2n1)[C@@]12CCCN1C[C@H](F)C2 [Example 10, 4-(4-((1S,7R)-2-Oxa-6-azabicyclo[5.1.0]octan-6-yl)-8-fluoro-2-(((2R,7aS)-2-fluorotetrahydro-1H-pyrrolizin-7a(5H)-yl)methoxy-d2)pyrido[4,3-d]pyrimidin-7-yl)-5-ethynyl-6-fluoronaphthalen-2-ol]
50 to 500 | [2H]C([2H])(Oc1nc(N2CCCO[C@@H]3C[C@@H]32)c2cnc(-c3cc(O)cc4ccc(F)c(C#C)c34)c(F)c2n1)[C@@]12CCCN1C[C@H](F)C2 [Example 11, 4-(4-((1R,7S)-2-Oxa-6-azabicyclo[5.1.0]octan-6-yl)-8-fluoro-2-(((2R,7aS)-2-fluorotetrahydro-1H-pyrrolizin-7a(5H)-yl)methoxy-d2)pyrido[4,3-d]pyrimidin-7-yl)-5-ethynyl-6-fluoronaphthalen-2-ol]
< 50 | C#Cc1c(F)ccc2cc(O)cc(-c3ncc4c(N5CCCC6CC6C5)nc(OC[C@@]56CCCN5C[C@H](F)C6)nc4c3F)c12 (stereo partly drawn) [Example 12, 4-(4-(3-Azabicyclo[5.1.0]octan-3-yl)-8-fluoro-2-(((2R,7aS)-2-fluorotetrahydro-1H-pyrrolizin-7a(5H)-yl)methoxy)pyrido[4,3-d]pyrimidin-7-yl)-5-ethynyl-6-fluoronaphthalen-2-ol]
< 50 | [2H]C([2H])(Oc1nc(N2CCCO[C@H]3C[C@H]32)c2cnc(-c3cc(N)cc4cc(F)c(F)c(C#C)c34)c(F)c2n1)[C@@]12CCCN1C[C@H](F)C2 [Example 17, 4-(4-((1S,7R)-2-Oxa-6-azabicyclo[5.1.0]octan-6-yl)-8-fluoro-2-(((2R,7aS)-2-fluorotetrahydro-1H-pyrrolizin-7a(5H)-yl)methoxy-d2)pyrido[4,3-d]pyrimidin-7-yl)-5-ethynyl-6,7-difluoronaphthalen-2-amine]
500 to 10000 | [2H]C([2H])(Oc1nc(N2CCCO[C@@H]3C[C@@H]32)c2cnc(-c3cc(N)cc4cc(F)c(F)c(C#C)c34)c(F)c2n1)[C@@]12CCCN1C[C@H](F)C2 [Example 18, 4-(4-((1R,7S)-2-Oxa-6-azabicyclo[5.1.0]octan-6-yl)-8-fluoro-2-(((2R,7aS)-2-fluorotetrahydro-1H-pyrrolizin-7a(5H)-yl)methoxy-d2)pyrido[4,3-d]pyrimidin-7-yl)-5-ethynyl-6,7-difluoronaphthalen-2-amine]
< 50 | [2H]C([2H])(Oc1nc(N2CCOC[C@@H]3[C@H]2C3(F)F)c2cnc(-c3cc(N)cc4cc(F)c(F)c(C#C)c34)c(F)c2n1)[C@@]12CCCN1C[C@H](F)C2 [Example 19, 4-(4-((1S,7S)-8,8-Difluoro-5-oxa-2-azabicyclo[5.1.0]octan-2-yl)-8-fluoro-2-(((2R,7aS)-2-fluorotetrahydro-1H-pyrrolizin-7a(5H)-yl)methoxy-d2)pyrido[4,3-d]pyrimidin-7-yl)-5-ethynyl-6,7-difluoronaphthalen-2-amine]
500 to 10000 | [2H]C([2H])(Oc1nc(N2CCOC[C@H]3[C@@H]2C3(F)F)c2cnc(-c3cc(N)cc4cc(F)c(F)c(C#C)c34)c(F)c2n1)[C@@]12CCCN1C[C@H](F)C2 [Example 20, 4-(4-((1R,7R)-8,8-Difluoro-5-oxa-2-azabicyclo[5.1.0]octan-2-yl)-8-fluoro-2-(((2R,7aS)-2-fluorotetrahydro-1H-pyrrolizin-7a(5H)-yl)methoxy-d2)pyrido[4,3-d]pyrimidin-7-yl)-5-ethynyl-6,7-difluoronaphthalen-2-amine]
500 to 10000 | [2H]C([2H])(Oc1nc(N2CCCO[C@H]3[C@@H](F)[C@H]32)c2cnc(-c3cc(N)cc4cc(F)c(F)c(C#C)c34)c(F)c2n1)[C@@]12CCCN1C[C@H](F)C2 [Example 21, 5-Ethynyl-6,7-difluoro-4-(8-fluoro-4-((1R,7S,8S)-8-fluoro-2-oxa-6-azabicyclo[5.1.0]octan-6-yl)-2-(((2R,7aS)-2-fluorotetrahydro-1H-pyrrolizin-7a(5H)-yl)methoxy-d2)pyrido[4,3-d]pyrimidin-7-yl)naphthalen-2-amine]
50 to 500 | [2H]C([2H])(Oc1nc(N2CCCO[C@@H]3[C@H](F)[C@@H]32)c2cnc(-c3cc(N)cc4cc(F)c(F)c(C#C)c34)c(F)c2n1)[C@@]12CCCN1C[C@H](F)C2 [Example 22, 5-Ethynyl-6,7-difluoro-4-(8-fluoro-4-((1S,7R,8R)-8-fluoro-2-oxa-6-azabicyclo[5.1.0]octan-6-yl)-2-(((2R,7aS)-2-fluorotetrahydro-1H-pyrrolizin-7a(5H)-yl)methoxy-d2)pyrido[4,3-d]pyrimidin-7-yl)naphthalen-2-amine]
500 to 10000 | [2H]C([2H])(Oc1nc(N2CCCO[C@@H]3[C@@H](F)[C@@H]32)c2cnc(-c3cc(N)cc4cc(F)c(F)c(C#C)c34)c(F)c2n1)[C@@]12CCCN1C[C@H](F)C2 [Example 23, 5-Ethynyl-6,7-difluoro-4-(8-fluoro-4-((1S,7R,8S)-8-fluoro-2-oxa-6-azabicyclo[5.1.0]octan-6-yl)-2-(((2R,7aS)-2-fluorotetrahydro-1H-pyrrolizin-7a(5H)-yl)methoxy-d2)pyrido[4,3-d]pyrimidin-7-yl)naphthalen-2-amine]
< 50 | [2H]C1([2H])CCO[C@H]2C[C@H]2N1c1nc(OC([2H])([2H])[C@@]23CCCN2C[C@H](F)C3)nc2c(F)c(-c3cc(N)cc4cc(F)c(F)c(C#C)c34)ncc12 [Example 25, 4-(4-((1S,7R)-2-Oxa-6-azabicyclo[5.1.0]octan-6-yl-5,5-d2)-8-fluoro-2-(((2R,7aS)-2-fluorotetrahydro-1H-pyrrolizin-7a(5H)-yl)methoxy-d2)pyrido[4,3-d]pyrimidin-7-yl)-5-ethynyl-6,7-difluoronaphthalen-2-amine]
50 to 500 | [2H]C1([2H])CCO[C@@H]2C[C@@H]2N1c1nc(OC([2H])([2H])[C@@]23CCCN2C[C@H](F)C3)nc2c(F)c(-c3cc(N)cc4cc(F)c(F)c(C#C)c34)ncc12 [Example 26, 4-(4-((1R,7S)-2-Oxa-6-azabicyclo[5.1.0]octan-6-yl-5,5-d2)-8-fluoro-2-(((2R,7aS)-2-fluorotetrahydro-1H-pyrrolizin-7a(5H)-yl)methoxy-d2)pyrido[4,3-d]pyrimidin-7-yl)-5-ethynyl-6,7-difluoronaphthalen-2-amine]
50 to 500 | [2H]C([2H])(Oc1nc(N2CCOC[C@@H]3[C@@H](F)[C@@H]32)c2cnc(-c3cc(N)cc4cc(F)c(F)c(C#C)c34)c(F)c2n1)[C@@]12CCCN1C[C@H](F)C2 [Example 27, 5-Ethynyl-6,7-difluoro-4-(8-fluoro-4-((1R,7R,8R)-8-fluoro-5-oxa-2-azabicyclo[5.1.0]octan-2-yl)-2-(((2R,7aS)-2-fluorotetrahydro-1H-pyrrolizin-7a(5H)-yl)methoxy-d2)pyrido[4,3-d]pyrimidin-7-yl)naphthalen-2-amine]
50 to 500 | [2H]C([2H])(Oc1nc(N2CCOC[C@@H]3[C@H](F)[C@@H]32)c2cnc(-c3cc(N)cc4cc(F)c(F)c(C#C)c34)c(F)c2n1)[C@@]12CCCN1C[C@H](F)C2 [Example 29, 5-Ethynyl-6,7-difluoro-4-(8-fluoro-4-((1R,7R,8S)-8-fluoro-5-oxa-2-azabicyclo[5.1.0]octan-2-yl)-2-(((2R,7aS)-2-fluorotetrahydro-1H-pyrrolizin-7a(5H)-yl)methoxy-d2)pyrido[4,3-d]pyrimidin-7-yl)naphthalen-2-amine]
< 50 | [2H]C([2H])(Oc1nc(N2CCOC[C@H]3[C@@H](F)[C@H]32)c2cnc(-c3cc(N)cc4cc(F)c(F)c(C#C)c34)c(F)c2n1)[C@@]12CCCN1C[C@H](F)C2 [Example 30, 5-Ethynyl-6,7-difluoro-4-(8-fluoro-4-((1S,7S,8R)-8-fluoro-5-oxa-2-azabicyclo[5.1.0]octan-2-yl)-2-(((2R,7aS)-2-fluorotetrahydro-1H-pyrrolizin-7a(5H)-yl)methoxy-d2)pyrido[4,3-d]pyrimidin-7-yl)naphthalen-2-amine]
50 to 500 | [2H]C([2H])(Oc1nc(N2CCO[C@@H]3C[C@@H]32)c2cnc(-c3cc(N)cc4cc(F)c(F)c(C#C)c34)c(F)c2n1)[C@@]12CCCN1C[C@H](F)C2 [Example 31, 4-(4-((1R,6S)-2-Oxa-5-azabicyclo[4.1.0]heptan-5-yl)-8-fluoro-2-(((2R,7aS)-2-fluorotetrahydro-1H-pyrrolizin-7a(5H)-yl)methoxy-d2)pyrido[4,3-d]pyrimidin-7-yl)-5-ethynyl-6,7-difluoronaphthalen-2-amine]
